Data on one compound can be found in US20130216630A1, “BIOMATERIALS FOR USE IN METHODS OF BONE REPLACEMENT THERAPY” (UNIVERSITY OF WITWATERSRAND, JOHANNESBURG, priority 2010, published 2013).

“Also recorded” adds a separate entry of the source.

In assay [1] the test system is rectus abdominis muscle of Papio ursinus. The assay is described as follows: Heterotopic implantation of macroporous 7% HA/CC constructs in rectus abdominis muscle, histological evaluation of bone induction. Format: in vivo. Conditions: coral-derived 7% HA/CC macroporous constructs pre-loaded with 0.24 mg zoledronate; intramuscular (rectus abdominis) implantation in adult Papio ursinus; harvested 90 days after implantation. On the procedure:
Topographical modification of the implanted constructs may be of the utmost importance for the differentiation of myoblastic/myoendothelial and/or perivascular/endothelial stem cells into osteoblastic-like cells. In order to study the effect of the osteoclastic activity on cell differentiation and the induction of bone formation, samples of solid porous construct compositions, typically macroporous hydroxyapatites were pre-loaded with 0.24 mg of the osteoclastic inhibitor biphosphonate zoledronate (Zometa®). Samples with and without zoledronate were then implanted in the rectus abdominis muscle of Papio ursinus.
A biomaterial to act, in use, as a platform for bone growth induction and/or bone growth was prepared. Said solid porous composition in the form of macroporous hydroxyapatite replicas of the calcium carbonate exoskeletal microstructure of the coral genus Goniopora was prepared by hydrothermal chemical exchange with phosphate [(5) Ripamonti, U. J Bone Joint Surg Am 1991; 73:692-703; (6) Ripamonti U, Richter P W, Nilen R W N, Renton L., J Cell Mol Med 2008; 12:1029-48., (7) Shors EC, Orthop Clin North Am 1999:30:599-613; (8) Ripamonti U, van den Heever B, van Wyk J., Matrix 1993;13:491-502; (9) Ripamonti, R. M. Klar, L. F. Renton, C Ferretti., Biomaterials, 31, 6400-6410 (2010). The entirety of which are incorporated by reference herein]. […]

Assay [2] relates to osteogenic protein-1 (OP-1) gene expression. The assay is described as follows: qTR-PCR analyses of harvested biomaterial constructs. It is filed as in vivo. The note with it: harvested constructs pre-treated with 0.24 mg zoledronate; Papio ursinus rectus abdominis. An excerpt: It is important to note that in specimens with bone formation by induction there is always expression of the OP-1 gene, i.e. there is a direct correlation between the induction of bone and the expression of the OP-1 gene.

Consider `O=P(O)(O)C(O)(Cn1ccnc1)P(=O)(O)O` [zoledronate], for which the “induction of bone formation / differentiation of bone within macroporous spaces (histology)” value in assay [1] was “lack of bone induction and/or bone growth; also recorded: either did not induce the differentiation of bone at all, or the induction was considerably inhibited; also recorded: In two specimens, the spontaneous induction of bone formation was altogether absent; also recorded: minor amounts of bone had formed by induction at the periphery; also recorded: very limited bone formation”. The “osteogenic protein-1 (OP-1) gene expression” value in assay [2] is reported as “dramatic reduction”.
